{"source": "patent US20240050449A1", "about": "“Use of Acetyltanshinone IIA in Preparation of Medicament for Treating Lung Cancer and Medicament for Treating Lung Cancer” (UNIVERSITY OF MACAU, priority 2022, published 2024)", "key": {"[1]": {"test_system": "H1650 cells", "assay": "Colony formation (cloning experiment), H1650 cells", "assay_type": "cell-based", "conditions": "10 days", "procedure": "(§1) Cells were seeded at a density of 1×10^3 per well in 6-well plates and cultured for 24 h. The cells were treated with medicament or DMSO for 10 days, after which the cells were washed once with 1×PBS, fixed with 4% paraformaldehyde for 20 min, and stained with 0.1% crystal violet for 15 min. The stained cells in each well were imaged and the number of colonies in each well was quantified using ImageJ software."}, "[2]": {"assay": "Body weight, deaths and toxicity in the xenograft study", "conditions": "25 mg/kg intraperitoneally every 3 days for 31 days", "procedure": "(§2) Cell line xenograft experiments were performed in 6-week-old female nude mice, 4×10^6 A549 cells were mixed 1:1 with matrigel-basement membrane matrix (Corning) and injected subcutaneously into nude mice. Tumors were allowed to grow to around […] and mice were randomly selected to receive treatment with ATA (25 mg/kg) or Erlotinib (25 mg/kg) intraperitoneally every 3 days for 31 days. ATA was formulated with 25% ethanol, 60% PEG300 (Sigma-Aldrich), and 15% Tween 80 (Sigma-Aldrich). Erlotinib was formulated in 5% DMSO, 30% PEG300, 5% Tween 80 and 60% H2O. Mouse body weight and tumor volume were measured every 3 days by a scale and caliper. Tumor volume (mm^3) was calculated using the formula. π/6×length (mm)×[width (mm)]^2. At least 6 mice in the control and treatment groups were evaluated during the study. All mice were sacrificed after 31 days of drug treatment, tumors were collected, and tumor weights were recorded. All animal studies were conducted in accordance with the requirements of the Animal Research Ethics Committee of Macao University and in compliance with all relevant ethical requirements.\n(§3) To determine if ATA could also produce the same effect in vivo, this example injected A549 cells subcutaneously into nude mice to form tumor xenografts. Mice were randomly assigned to three groups. When the size of each tumor increased to a volume of approximately 100 mm^3, mice were injected intraperitoneally with vehicle control, ATA (25 mg/kg), or Erlotinib (25 mg/kg) every 3 days for 31 days. The tumor size and body weight of each mouse were measured every 3 days until the end of the animal experiment on day 31."}, "[3]": {"test_system": "H1975 cells", "assay": "Colony formation (cloning experiment), H1975 cells", "assay_type": "cell-based", "conditions": "0.125 μM, 10 days", "procedure": "as §1"}, "[4]": {"test_system": "protein levels in A549-derived xenograft tumor tissue", "assay": "Western blot of A549-derived xenograft tumor tissue", "assay_type": "in vivo, nude mice", "conditions": "after ATA treatment, 25 mg/kg", "quoted_text": "Cells were washed once with PBS and frozen in RIPA lysis buffer containing protease and phosphatase inhibitors (Sigma-Aldrich) for 30 min. After sonication and centrifugation, the total protein concentration was determined by protein assay using Bio-Rad concentrated dye reagent (Bio-Rad). Equal amounts of protein (25-50 mg) from each sample were separated by SDS-PAGE and electrotransferred to nitrocellulose membranes (GE Healthcare). Detection was performed on the membrane with a 1:1000 dilution of specific primary antibody followed by incubation with a 1:2000 dilution of the HRP conjugated secondary antibody. Finally, immunoreactivity is detected with a chemiluminescent substrate (Clarity Western ECL substrate; Bio-Rad). EGFR (#4267S), MET (#8198S), p-Akt (#9271L), akt (#9272S), p-mTOR (#5536S), mTOR (#2983S), p-p70S6K (#9234S), p70S6K (#2708S), p-S6RP (#4857S), S6RP (#2217S), p-4E-BP1 (#9455S) antibodies. 4E-BP1 (#9644S), p53 (#2527S), p21 waf1/Cip1 (#2947S), survivin (#2808S), cyclin B1 (#12231S), cyclin D3 (#2936S) and GAPDH (#2118S) were purchased from Cell Signaling Technology. Aurora A (#ab13824) and PLK1 (#ab189139) antibodies were from Abcam.\nEGFR, MET, p-p70S6K, p70S6K, p-S6RP, S6RP, p21, AURKA, PLK1, and survivin protein levels were detected by Western blot analysis. Immunoblot samples were from two independent tumors per group."}, "[5]": {"test_system": "all four drug-resistant cell lines (A549, H358, H1975, H1650)", "assay": "Colony formation, all four drug-resistant cell lines", "assay_type": "cell-based", "conditions": "1 μM, 10 days", "procedure": "as §1"}, "[6]": {"test_system": "A549 cells", "assay": "Transwell Matrigel invasion assay", "assay_type": "cell-based", "procedure": "Cell migration and invasion assays were performed in a transwell chamber (Corning, #3422) with a pore size of 8 μm. Cells were treated with different concentrations of ATA and Erlotinib for 48 h, then harvested and resuspended in a serum-free medium. Cells (1×10^4) were added to the upper side of the transwell chamber and fresh medium containing 10% FBS was added to the lower side. Cells were allowed to migrate from the upper side to the lower side of the chamber at 37° C. for 24 h. Membranes from the cell chamber were fixed with 4% paraformaldehyde for 20 min. The cells remaining on the upper side of the membrane were gently removed with a cotton swab and stained with 1% crystal violet for 20 min to stain the cells migrating to the other side of the transwell chamber. The membrane was then cut and fixed on a glass slide. The migrated cells on each slide were imaged with a Leica M165-FC microscope. For the transwell invasion assay, a Matrigel solution (Corning, #356230) was diluted to one-thirtieth with serum-free medium and applied to the upper side of the precoated chamber for 2 h, after the Matrigel had solidified, the cells were added to the upper side of the transwell chamber. The following procedure is identical to the migration assay. Migrated and invaded cells were quantified using ImageJ software."}, "[7]": {"test_system": "A549 cell-derived xenograft tumors", "assay": "Mouse xenograft study", "assay_type": "in vivo, nude mice", "conditions": "25 mg/kg intraperitoneally every 3 days, day 31", "procedure": "as §2, §3"}, "[8]": {"test_system": "A549 cells", "assay": "Colony formation (cloning experiment), A549 cells", "assay_type": "cell-based", "conditions": "0.125 μM, 10 days", "procedure": "as §1"}, "[9]": {"test_system": "A549 cells", "assay": "MTT cell viability assay, A549 cells", "assay_type": "cell-based", "procedure": "(§4) Cells were seeded at a density of 3×10^3 per well in 96-well plates, allowed to attach overnight, and treated with various concentrations of agent. After 72 h of treatment, 10 μL of MTT solution (5 mg/mL) was added to each well and cultured in the plate for 4 h. The crystallized formazan was dissolved in 100 μL of 10% (w/v) SDS and 0.01 mol/L HCl solution for 24 h, and then the value was read by spectrophotometry at 595 nm using a microplate reader."}, "[10]": {"test_system": "H1650 cells", "assay": "MTT cell viability assay, H1650 cells", "assay_type": "cell-based", "procedure": "as §4"}, "[11]": {"test_system": "H358 cells", "assay": "Colony formation (cloning experiment), H358 cells", "assay_type": "cell-based", "conditions": "10 days", "procedure": "as §1"}, "[12]": {"test_system": "A549 and H1650 cells", "assay": "Cell cycle analysis (PI staining, flow cytometer)", "assay_type": "cell-based", "conditions": "1 or 2 μM, 48 h", "procedure": "Cell cycle analysis was performed using standard flow cytometer protocols. Briefly, after ATA treatment, cells were harvested, washed with 1×PBS, and then fixed with 70% pre-chilled ethanol at 4° C. for 30 min. Fixed cells were washed twice with 1×PBS, resuspended in 0.5 mL of 1×PBS containing 50 μg/mL propidium iodide (PI) and 100 μg/mL RNase A (ribonuclease A) for 30 min at 37° C. in the dark. The cell cycle was then analyzed on a BD Accuri C6 flow cytometer (BD Biosciences, CA). Data from the flow cytometer were analyzed using FlowJo software (Tree Star)."}, "[13]": {"test_system": "H1975 cells", "assay": "Spheroid formation experiment, H1975 cells", "assay_type": "cell-based", "excerpt": "The density of H1975 was 500 cells per well and the density of H1650 was 1000 cells per well in an ultra-low adhesion round bottom 96 well plate (Corning, #7007)."}, "[14]": {"test_system": "H1975 cells", "assay": "MTT cell viability assay, H1975 cells", "assay_type": "cell-based", "procedure": "as §4"}, "[15]": {"test_system": "H358 cells", "assay": "MTT cell viability assay, H358 cells", "assay_type": "cell-based", "procedure": "as §4"}}, "note": "“Also recorded” adds a separate entry of the source."}
{"smiles": "CC(=O)Oc1c(OC(C)=O)c2c(C)coc2c2ccc3c(c12)CCCC3(C)C", "note": "[ATA, acetyltanshinone IIA]", "values": [{"measurement": "reduction of colony-forming capacity", "setting": "[1]; 0.125 μM", "value": 73, "unit": "%"}, {"measurement": "colony formation inhibition compared with Afatinib", "setting": "[1]; 1 μM", "value": "significantly higher colony formation inhibition than Afatinib"}, {"measurement": "deaths during the treatment period", "setting": "[2]", "value": "no mice died"}, {"measurement": "toxicity in nude mice", "setting": "[2]", "value": "no significant toxicity"}, {"measurement": "weight of nude mice compared between groups", "setting": "[2]", "value": "no difference"}, {"measurement": "inhibition of colony formation", "setting": "[3]", "value": "almost completely inhibited"}, {"measurement": "increase of p21 protein levels in xenograft tumor tissue", "setting": "[4]", "value": "more than 2 fold"}, {"measurement": "protein levels of EGFR, MET, p-p70S6K, p70S6K, p-S6RP, AURKA, PLK1 and survivin in xenograft tumor tissue", "setting": "[4]", "value": "greatly reduced"}, {"measurement": "inhibition of colony formation compared with Erlotinib and Osimertinib", "setting": "[5]", "value": "much more effectively than Erlotinib and Osimertinib"}, {"measurement": "effect on cell invasion", "setting": "[6]; 0.5 μM", "value": "significant inhibitory effect"}, {"measurement": "reduction of invasion ability", "setting": "[6]; 1 μM", "value": 88, "unit": "%"}, {"measurement": "reduction of tumor size compared to the control group", "setting": "[7]", "value": 72.1, "unit": "%"}, {"measurement": "reduction of tumor weight", "setting": "[7]", "value": 77.4, "unit": "%"}, {"measurement": "reduction of colony-forming capacity", "setting": "[8]", "value": 42, "unit": "%"}, {"measurement": "IC50 ratio of Erlotinib/ATA", "setting": "[9]", "value": 10.7}, {"measurement": "growth inhibition compared with other agents", "setting": "[9]; ATA 2 μM, 72 h, MTT", "value": "significantly higher than all three inhibitors; also recorded: greater growth inhibition than combination therapy with Erlotinib and MLN8237"}, {"measurement": "IC50", "setting": "[9]; MTT, 72 h", "value": "1830 ± 210", "unit": "nM"}, {"measurement": "IC50 ratio of Erlotinib/ATA", "setting": "[10]", "value": 17.3}, {"measurement": "growth inhibition compared with other agents", "setting": "[10]; ATA 2 μM, 72 h, MTT", "value": "significantly higher than all three inhibitors; also recorded: greater growth inhibition than combination therapy with Erlotinib and MLN8237"}, {"measurement": "IC50", "setting": "[10]; MTT, 72 h", "value": "1280 ± 290", "unit": "nM"}, {"measurement": "inhibition of colony formation", "setting": "[11]; 0.125 μM", "value": "almost completely inhibited"}, {"measurement": "colony formation inhibition compared with Afatinib", "setting": "[11]; 1 μM", "value": "significantly higher colony formation inhibition than Afatinib"}, {"measurement": "proportion of cells in the G1 phase", "setting": "[12]", "value": "increased"}, {"measurement": "proportion of cells in the S phase", "setting": "[12]", "value": "decreased"}, {"measurement": "spheroid growth / sphere size", "setting": "[13]; 2 μM, 0 to 8 days", "value": "completely inhibited"}, {"measurement": "spheroid formation", "setting": "[13]; both 1 and 2 μM", "value": "strongly inhibited"}, {"measurement": "IC50 ratio of Erlotinib/ATA", "setting": "[14]", "value": 6}, {"measurement": "IC50", "setting": "[14]; MTT, 72 h", "value": "1760 ± 20", "unit": "nM"}, {"measurement": "IC50 ratio of Erlotinib/ATA", "setting": "[15]", "value": 13.7}, {"measurement": "IC50", "setting": "[15]; MTT, 72 h", "value": "1570 ± 100", "unit": "nM"}]}
